ChEMBL document CHEMBL1201862, “PubChem BioAssay data set” (2004)
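Results reflect a 48-hour exposure of cells in 96-well plates to compound at five concentrations. GI50 marks 50% less growth.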 Active and inactive are the calls of the source. Cut-off read from the data, not from the text of the source: active = GI50 up to about 1.1 µM and inactive = higher.

Experiments:
Assay in all cases: DTP human tumour cell line panel, 48 h
U-251 = system: U-251
OVCAR-8 = system: OVCAR-8
SN12C = system: SN12C
OVCAR-5 = system: OVCAR-5
PC-3 = system: PC-3
TK-10 = system: TK-10
HT-29 = system: HT-29
BT-549 = system: BT-549
UACC-62 = system: UACC-62
MDA-N = system: MDA-N
SF-268 = system: SF-268
A498 = system: A498
MOLT-4 = system: MOLT-4
DU-145 = system: DU-145
SNB-75 = system: SNB-75
MDA-MB-231 = system: MDA-MB-231
CCRF-CEM = system: CCRF-CEM
LOX IMVI = system: LOX IMVI
HOP-62 = system: HOP-62

| SMILES | GI50 (U-251) | GI50 (OVCAR-8) | GI50 (SN12C) | GI50 (OVCAR-5) | GI50 (PC-3) | GI50 (TK-10) | GI50 (HT-29) | GI50 (BT-549) | GI50 (UACC-62) | GI50 (MDA-N) | GI50 (SF-268) | GI50 (A498) | GI50 (MOLT-4) | GI50 (DU-145) | GI50 (SNB-75) | GI50 (MDA-MB-231) | GI50 (CCRF-CEM) | GI50 (LOX IMVI) | GI50 (HOP-62) |
| --- | --- | --- | --- | --- | --- | --- | --- | --- | --- | --- | --- | --- | --- | --- | --- | --- | --- | --- | --- |
| Cc1c(Cl)nc(Nc2nc3ccccc3[nH]2)nc1Cl | > 100 µM (inactive) | 41.7 µM (inactive) | 41 µM (inactive) | > 100 µM (inactive) | > 100 µM (inactive) | > 100 µM (inactive) | 25 µM (inactive) | > 100 µM (inactive) | > 100 µM (inactive) | > 100 µM (inactive) | 47.6 µM (inactive) | > 100 µM (inactive) | > 100 µM (inactive) | 39.4 µM (inactive) | > 100 µM (inactive) |  |  |  |  |
| CN(C)c1ccc(/C=C/c2ccnc3ccccc23)cc1N | 9.66 µM (inactive) | 8.85 µM (inactive) | 14.8 µM (inactive) | 13.7 µM (inactive) | 4.35 µM (inactive) | 5.16 µM (inactive) | 4.49 µM (inactive) |  | 12.1 µM (inactive) | 3.1 µM (inactive) | 9.73 µM (inactive) | 10.4 µM (inactive) | 5.64 µM (inactive) | 10.4 µM (inactive) | 6.5 µM (inactive) | 4.04 µM (inactive) | 3 µM (inactive) | 7.41 µM (inactive) | 13.8 µM (inactive) |
| CC(=O)Nc1cccc(N2C(=O)/C(=C\c3cccc(Oc4ccccc4)c3)SC2c2ccccc2)c1 (stereo unspecified) | 35.5 µM (inactive) | 92.5 µM (inactive) | > 100 µM (inactive) | > 100 µM (inactive) |  | 97.5 µM (inactive) | 80.7 µM (inactive) | > 100 µM (inactive) | 60.3 µM (inactive) | 28.1 µM (inactive) | 72.1 µM (inactive) | > 100 µM (inactive) | 26.5 µM (inactive) | > 100 µM (inactive) |  | > 100 µM (inactive) | 14.9 µM (inactive) | 37.8 µM (inactive) | > 100 µM (inactive) |
| O=C1/C(=C\c2cccc(Oc3ccccc3)c2)SC(c2ccccc2)N1Cc1ccccc1 (stereo unspecified) | 18.4 µM (inactive) | 22.4 µM (inactive) | 33 µM (inactive) | 57.3 µM (inactive) |  | 32.1 µM (inactive) | 20.2 µM (inactive) | 25.2 µM (inactive) | 29.3 µM (inactive) | 17 µM (inactive) | 35 µM (inactive) | 37.7 µM (inactive) | 30.1 µM (inactive) | 34.9 µM (inactive) |  | 32.9 µM (inactive) | 17.1 µM (inactive) | 15.5 µM (inactive) | 29.1 µM (inactive) |
| O=C1N(c2ccccc2)N=C2c3ccncc3C3=NN(c4ccccc4)C(=O)C123 (stereo unspecified) | > 100 µM (inactive) | > 100 µM (inactive) | > 100 µM (inactive) | > 65.2 µM (inactive) | 2.43 µM (inactive) | > 100 µM (inactive) | > 39.6 µM (inactive) | > 48.4 µM (inactive) | 5.57 µM (inactive) |  |  | > 100 µM (inactive) | 0.504 µM (active) |  | > 100 µM (inactive) | > 100 µM (inactive) | > 40.9 µM (inactive) | 0.411 µM (active) | > 100 µM (inactive) |
| O/N=C1/CCCCC1NO (stereo unspecified) | > 100 µM (inactive) | > 100 µM (inactive) | > 100 µM (inactive) | > 100 µM (inactive) | > 100 µM (inactive) | > 100 µM (inactive) | > 100 µM (inactive) |  | > 100 µM (inactive) | > 100 µM (inactive) | > 100 µM (inactive) |  | > 100 µM (inactive) | > 100 µM (inactive) | > 100 µM (inactive) | > 100 µM (inactive) | > 100 µM (inactive) | > 100 µM (inactive) | > 100 µM (inactive) |
| COc1cc2nc(NCCCCCNC(=O)c3ccco3)nc(N)c2cc1OC | 20.5 µM (inactive) | 33.7 µM (inactive) | 39.8 µM (inactive) | 38.3 µM (inactive) |  | 53.1 µM (inactive) | 33.9 µM (inactive) |  | 22.2 µM (inactive) |  | 36.2 µM (inactive) | 80.2 µM (inactive) | 24.8 µM (inactive) |  | 22.6 µM (inactive) |  | 28.5 µM (inactive) |  | 24.2 µM (inactive) |
| COC(=O)c1c2c(cc3c1CC1(C3)Cc3cc4c(c(C(=O)OC)c3C1)CCCC4)CCCC2 | > 100 µM (inactive) | > 100 µM (inactive) | > 100 µM (inactive) | > 100 µM (inactive) | 3.94 µM (inactive) | > 100 µM (inactive) | > 100 µM (inactive) |  | > 100 µM (inactive) | > 100 µM (inactive) |  | > 100 µM (inactive) | 57.5 µM (inactive) |  |  | > 100 µM (inactive) | 30.5 µM (inactive) | > 100 µM (inactive) | > 100 µM (inactive) |
| CC(=O)OC(COc1ccc2c(c1)[n+]([O-])nc(N)[n+]2[O-])CN1CCCCC1 (stereo unspecified) | 13.5 µM (inactive) | 13.8 µM (inactive) | 7.62 µM (inactive) | 20.8 µM (inactive) | 1.52 µM (inactive) | 23.5 µM (inactive) | 11.1 µM (inactive) | 24.5 µM (inactive) |  |  | > 10 µM (inactive) | 4.36 µM (inactive) | 2.49 µM (inactive) | 18.3 µM (inactive) | 18.2 µM (inactive) | 5.61 µM (inactive) | 6.1 µM (inactive) |  |  |
| Cc1ccc(SCC(CF)OCn2cc(F)c(=O)[nH]c2=O)cc1 (stereo unspecified) | > 100 µM (inactive) | > 100 µM (inactive) |  | > 100 µM (inactive) | > 100 µM (inactive) | > 100 µM (inactive) | > 100 µM (inactive) |  |  | > 100 µM (inactive) | > 100 µM (inactive) | > 100 µM (inactive) | > 100 µM (inactive) | > 100 µM (inactive) |  | > 100 µM (inactive) | 55.2 µM (inactive) | > 100 µM (inactive) | > 100 µM (inactive) |
| COC(=O)c1ccccc1CC1Cc2c(C)ccc(C)c2C1=O (stereo unspecified) | 33.8 µM (inactive) | 42.1 µM (inactive) | 45.3 µM (inactive) | 49.1 µM (inactive) | 34.8 µM (inactive) | 20.5 µM (inactive) | 14.9 µM (inactive) | 34.5 µM (inactive) | 28.7 µM (inactive) |  | 29.6 µM (inactive) | 25.8 µM (inactive) | 19.6 µM (inactive) | 50.5 µM (inactive) | 36.1 µM (inactive) | 16 µM (inactive) | 22.2 µM (inactive) | 16.5 µM (inactive) | 60.1 µM (inactive) |
| CCOC(=O)c1c(NC(=O)Nc2ccccc2)c(C(N)=O)c2n1CCCCC2 | > 100 µM (inactive) | > 100 µM (inactive) |  |  | > 100 µM (inactive) | > 100 µM (inactive) | > 100 µM (inactive) | > 100 µM (inactive) | > 100 µM (inactive) |  | > 100 µM (inactive) | > 100 µM (inactive) | > 100 µM (inactive) | > 100 µM (inactive) | > 100 µM (inactive) | > 100 µM (inactive) | > 100 µM (inactive) | > 100 µM (inactive) | > 100 µM (inactive) |
| C=CC1OC(CCCOC(=O)C(C)(C)C)O[C@@H]1CC (stereo partly specified) | > 100 µM (inactive) | > 100 µM (inactive) | > 100 µM (inactive) | > 100 µM (inactive) | > 100 µM (inactive) | > 100 µM (inactive) | > 100 µM (inactive) |  | > 100 µM (inactive) | > 100 µM (inactive) | > 100 µM (inactive) | > 100 µM (inactive) | > 100 µM (inactive) | > 100 µM (inactive) | > 100 µM (inactive) | > 100 µM (inactive) | > 100 µM (inactive) |  | > 100 µM (inactive) |
| N/N=C1/C(=N/O)CCc2nonc21 | > 100 µM (inactive) | > 100 µM (inactive) | > 100 µM (inactive) | > 100 µM (inactive) | > 100 µM (inactive) | > 100 µM (inactive) | > 100 µM (inactive) |  | > 100 µM (inactive) | > 100 µM (inactive) | > 100 µM (inactive) |  | > 100 µM (inactive) | > 100 µM (inactive) | > 100 µM (inactive) | > 100 µM (inactive) | > 100 µM (inactive) | > 100 µM (inactive) | > 100 µM (inactive) |
| O=C(Nc1c(O)[nH]c(=S)[nH]c1=O)c1ccco1 | > 100 µM (inactive) | > 100 µM (inactive) | > 100 µM (inactive) | > 100 µM (inactive) |  | > 100 µM (inactive) | > 100 µM (inactive) |  | > 100 µM (inactive) |  | > 100 µM (inactive) | > 100 µM (inactive) | > 100 µM (inactive) |  | > 100 µM (inactive) |  | > 100 µM (inactive) | > 100 µM (inactive) | > 100 µM (inactive) |
| NC1NCCC(=O)N1CCc1c[nH]c2ccccc12 (stereo unspecified) | 65.2 µM (inactive) | 39.7 µM (inactive) | 27.2 µM (inactive) | 23.6 µM (inactive) | 19.3 µM (inactive) | 25.9 µM (inactive) | 27.2 µM (inactive) |  | 20.1 µM (inactive) | 17.6 µM (inactive) | 22.1 µM (inactive) | 12.7 µM (inactive) |  | 23.7 µM (inactive) | 6.98 µM (inactive) | 13.2 µM (inactive) | 23.6 µM (inactive) | 12.9 µM (inactive) | 19.2 µM (inactive) |
| O=C(CCl)N1CCN(c2ccccn2)CC1 | 17.9 µM (inactive) | 26.2 µM (inactive) |  | 20.7 µM (inactive) | > 100 µM (inactive) | 19.5 µM (inactive) | 17.7 µM (inactive) |  |  | 25.2 µM (inactive) | 23.6 µM (inactive) | 17 µM (inactive) | 31.7 µM (inactive) | > 100 µM (inactive) | > 10 µM (inactive) |  | 19.9 µM (inactive) |  | 22.7 µM (inactive) |
